In assay [1] the test system is mouse embryos. The assay is described as follows: development in vitro of mouse embryos (rate of 2-cell, 4-cell, blastocyst). The class given is cell-based. The following applies: for The rate of 2-cell: 24 h culture; for The rate of 4-cell: 48 h culture. The method, then:
Specifically, at 4:00 p.m. on the first day, 10 IU pregnant horse serum gonadotropin was injected intraperitoneally into Kunming female mouse with SPF level for 6˜9 weeks, and 8 IU chorionic gonadotropin was injected after 48 hours. At 9:00 the next day, the 9˜12-week male mouse was killed by cervical dislocation, and the tail of the epididymis next to the vas deferens was taken, after cutting with ophthalmic scissors in 200 μL of insemination droplet (Sigma, MR-070-D) is to release sperm for 60 minutes. The insemination droplet need to be pre-balanced the night before. At the same time, 4 female mouse were killed by neck detachment, the enlargement of oviduct was disposed of in the sperm solution, the insulin needle was used to open the ampulla side under the microscope, and the cumulus-oocyte complex (COCs) would be released from the ampulla under the action of squeezing or internal pressure. 8˜10 μL of sperm and COCs were taken in the insemination droplet. After 6 h after insemination, the zygotes (with two pronuclei, both male and female) were cleaned and transferred to different treatments of KSOM culture medium, specific groups are as follows:
Control group: the basic development culture medium in vitro of mouse embryos was added to the special small dish for embryo culture, 2 droplets were made, 50 μL of culture medium per droplets, covered with paraffin oil, pre-balanced in an incubator with 37° C., 5% CO2 saturated humidity for more than 6 hours, and the embryos were placed in well-balanced culture droplets, with 25˜35 pieces per droplets;
Treatment group 1: the development culture medium in vitro of mouse embryos containing 50 μmol/L of tributyrin was added to the special dish for embryo culture, 2 droplets were made, 50 μL of culture medium per droplets, covered with paraffin oil, pre-balanced in an incubator with 37° C., 5% CO2 saturated humidity for more than 6 hours, and the embryos were placed in well-balanced culture droplets, with 25˜35 pieces per droplets;
Treatment group 2: the development culture medium in vitro of mouse embryos containing 100 μmol/L of tributyrin was added to the special dish for embryo culture, 2 droplets were made, 50 μL of culture medium per droplets, covered with paraffin oil, pre-balanced in an incubator with 37° C., 5% CO2 saturated humidity for more than 6 hours, and the embryos were placed in well-balanced culture droplets, with 25˜35 pieces per droplets;
Treatment group 3: the development culture medium in vitro of mouse embryos containing 200 μmol/L of tributyrin was added to the special dish for embryo culture, 2 droplets were made, 50 μL of culture medium per droplets, covered with paraffin oil, pre-balanced in an incubator with 37° C., 5% CO2 saturated humidity for more than 6 hours, and the embryos were placed in well-balanced culture droplets, with 25˜35 pieces per droplets;
The above different treatment groups were incubated in an incubator with 37° C., 5% CO2 saturated humidity for 24 h, 48 h, 72 h and 96 h, corresponding to the 2-cell, 4-cell, morula and blastocyst stages of embryonic development, respectively, and the embryonic development was observed.
The rate of cleavage (%)=number of cleavage embryos/number of fertilized eggs with male and female pronuclei×100%
The rate of blastocyst (%)=number of blastocysts/number of cleavage embryos×100%

The test system of assay [2] is mouse embryos. The assay is described as follows: detection of reactive oxygen species (ROS) in mouse embryos, DCFH-DA fluorescence. The class given is cell-based. The following applies: 100 μmol/L tributyrin, 2-cell stage, vs control. The method, then:
(§1) Therefore, exemplically, experiments are carried out in the experimental group of this example using culture medium added 100 μmol/L of tributyrin, specifically, the experiments are divided into the following two groups:
(§2) Experimental group: the development culture medium in vitro of mouse embryos containing 100 μmol/L of tributyrin was added to the special dish for embryo culture, 2 droplets were made, 50 μL of culture medium per droplets, covered with paraffin oil, pre-balanced in an incubator with 37° C., 5% CO2 saturated humidity for more than 6 hours, and the embryos were placed in well-balanced culture droplets, with 25˜35 pieces per droplets.
Referring to the steps of development culture in vitro of example 2, development culture in vitro was carried out on the above two treatment groups; according to the instructions of the reactive oxygen species detection kit (Biyuntian, S0033S), DCFH-DA was diluted to a working solution concentration of 5 µM with KSOM culture medium. […] Image J software was used to analyze the average fluorescence intensity of ROS in embryos.

Assay [3] deals with mouse embryos. The assay is described as follows: detection of ATP level in mouse embryos. The class given is cell-based. The following applies: 100 μmol/L tributyrin, 2-cell stage, vs control. How it is done:
as §1, §2
Referring to the steps of development culture in vitro of example 2, development culture in vitro was carried out on the above two treatment groups; according to the instructions of the ATP detection kit (Biyuntian, S0027), the embryos of the control group and the experimental group at the 2-cell stage were tested for ATP. Add 16 μL of ATP detection lysate to 200 μL centrifuge tube and transfer into 40 pieces 2-cell stage embryos. […] 64 μL of ATP working solution (ATP detection reagent diluent: ATP detection reagent=4:1) was added to the tube, vortex and centrifuged to the bottom of the tube, quickly transferred to a black 96-well plate with a multifunctional microplate reader for detection.

The subject of another assay is GPX4. Put plainly: detection of antioxidant gene expression in mouse embryos (qPCR), GPX4. The assay is classed as cell-based. As to conditions: 100 μmol/L tributyrin, 2-cell stage, vs control, RPLP0 internal control. The method, then: as §1, §2
(§3) Referring to the steps of development culture in vitro of example 2, development culture in vitro was carried out on the above two treatment groups; embryos from the control group and the experimental group at the 2-cell stage were obtained, the high-purity RNA was extracted according to the instructions of the RNAprep Pure Total RNA Extraction Kit for Micro Samples (Tiangen, DP420). […] (annealed) for 30 s; 40 cycles (PCR amplification); the fluorescent signal was collected at 55° C. extension, the RPLPO gene was used as an internal control, and the expression was calculated using the 2^−ΔΔct formula, wherein, the primer sequences of each gene are shown in Table 2 below: […]
(In general: Real-time PCR tracks product formation cycle by cycle.)

Assay [4] has as its system 5 hmC level in mouse embryonic genome. Put plainly: detection of DNA methylation level (5 hmC immunofluorescence). The assay is classed as cell-based. As to conditions: 100 μmol/L tributyrin, 2-cell stage, vs control. How it is done:
as §1, §2
Referring to the steps of development culture in vitro of example 2, development culture in vitro was carried out on the above two treatment groups; embryos from the control group and the experimental group at the 2-cell stage were obtained, in order to detect the DNA methylation level in mouse embryos, the cells were first fixed with paraformaldehyde, TritonX-100 enhanced the permeability of the cell membrane to facilitate the binding of antibody antigens. After acidification and base neutralization, the non-specific protein is blocked with 2% BSA, followed by incubation with the corresponding primary antibody and fluorescently labeled secondary antibody. The specific methods and steps are as follows: […]

A further assay deals with histone H3K27ac. Put plainly: detection of histone acetylation level (H3K27ac immunofluorescence). The assay is classed as cell-based, mouse. The following applies: 100 μmol/L tributyrin, 2-cell stage, vs control. How it is done: as §1, §2
Referring to the steps of development culture in vitro of example 2, development culture in vitro was carried out on the above two treatment groups; embryos from the control group and the experimental group at the 2-cell stage were obtained, the histone H3K27ac level was detected by immunofluorescence. The specific methods and steps are as follows:
(1) Mouse embryos fixation and permeabilization: mouse embryos were placed in a washing solution (PBS containing 0.1% Tween-20 and 0.01% Triton X-100) for rapid washing for 1 time, then piped into the fixed permeabilization solution (PBS containing 4% paraformaldehyde and 0.5% Triton) and treated at room temperature for 50 min. […]

A further assay concerns SOD2. Put plainly: detection of antioxidant gene expression in mouse embryos (qPCR), SOD2. The class given is cell-based. As to conditions: 100 μmol/L tributyrin, 2-cell stage, vs control, RPLP0 internal control. How it is done: as §1, §2, §3
The subject of assay [5] is mouse embryos. Put plainly: detection of mitochondrial membrane potential, JC-1 staining. The class given is cell-based. As to conditions: 100 μmol/L tributyrin, 2-cell stage, vs control. How it is done: as §1, §2
Referring to the steps of development culture in vitro of example 2, development culture in vitro was carried out on the above two treatment groups; according to the instructions of the mitochondrial membrane potential J C-1 detection kit (Biyuntian, C2006), the embryos of the control group and the experimental group at the 2-cell stage were transferred into 1×J C-1 staining working solution, incubated in the dark at 37° C., 5% CO2 incubator for 30 min, then wash the embryos with 1×J C-1 staining buffer, it was placed under an inverted fluorescence microscope for observation and photography. Image J software was used to analyze the average fluorescence intensity of J C-1 red and J C-1 green in embryos.

As to `CCCC(=O)OCC(COC(=O)CCC)OC(=O)CCC` [tributyrin], the figures for the “The rate of 2-cell” value in the assay with mouse embryos [1] (50 μmol/L tributyrin in KSOM), with mouse embryos [1] (100 μmol/L tributyrin in KSOM) and with mouse embryos [1] (200 μmol/L tributyrin in KSOM) were 96.58 ± 0.83%, 96.91 ± 0.76% and 96.63 ± 0.5%, respectively. The entries for the “The rate of 4-cell” value in the assay with mouse embryos [1] (50 μmol/L tributyrin in KSOM), with mouse embryos [1] (100 μmol/L tributyrin in KSOM) and in the assay with mouse embryos [1] (200 μmol/L tributyrin in KSOM) were 95.57 ± 0.57%, 96.57 ± 0.37% and 96.46 ± 0.5%, respectively. For the same molecule, the “number of cells (microscopic observation, FIG. 1A)” value with mouse embryos [1] (treatment group compared to control group) was “increased significantly”. Also, in the assay with mouse embryos [2], the “ROS level (average fluorescence intensity of ROS) in mouse embryos” value was “significantly reduced”. Also, the “ATP level in mouse embryos” value in the assay on mouse embryos [3] is reported as “significantly increased”. Moreover, in the assay on GPX4, the “expression of antioxidant gene GPX4” value is reported as “significantly increased”. In addition, the “5 hmC level in mouse embryos” value in assay [4] is reported as “significantly increased”. For the same molecule, in the assay on histone H3K27ac, the “histone H3K27ac level in mouse embryos” value was “significantly increased”. Besides, the “expression of antioxidant gene SOD2” value with SOD2 was “significantly increased”. Besides, the “mitochondrial membrane potential level (relative fluorescence intensity of JC-1 red/green)” value in the assay on mouse embryos [5] was “significantly improved”.
